In the test the test system is P388 leukemia ip, CD2F1 mice, survival T/C. In words: NCI In Vivo Anticancer Drug Screen. Data for tumor model P388 Leukemia (intraperitoneal) in CD2F1 (CDF1) mice. Particulars: endpoint: median survival time, higher = longer survival. In short, it runs like this: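 Mice carrying the transplanted tumor received test compound or vehicle. Survival was recorded in each group, and the value is the treated-group measurement divided by that of the vehicle-treated control group.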

[1] abbreviates: dose: 6.25 mg/kg/injection, schedule: Q01DX005 (ip), vehicle: Klucel (hydroxypropylcellulose) (HPC).
Setting [2] is: dose: 12.5 mg/kg/injection, schedule: Q01DX005 (ip), vehicle: Klucel (hydroxypropylcellulose) (HPC).
[3] abbreviates: dose: 25.0 mg/kg/injection, schedule: Q01DX005 (ip), vehicle: Klucel (hydroxypropylcellulose) (HPC).
[4] abbreviates: dose: 50.0 mg/kg/injection, schedule: Q01DX005 (ip), vehicle: Klucel (hydroxypropylcellulose) (HPC).
Where [5] appears, read: dose: 100.0 mg/kg/injection, schedule: Q01DX005 (ip), vehicle: Klucel (hydroxypropylcellulose) (HPC).
[6] abbreviates: dose: 200.0 mg/kg/injection, schedule: Q01DX005 (ip), vehicle: Klucel (hydroxypropylcellulose) (HPC).
The mark [7] stands for this setting: dose: 100.0 mg/kg/injection, schedule: Q04DX003 (ip), vehicle: saline with Tween-80.
Setting [8] is: dose: 200.0 mg/kg/injection, schedule: Q04DX003 (ip), vehicle: saline with Tween-80.
The mark [9] stands for this setting: dose: 400.0 mg/kg/injection, schedule: Q04DX003 (ip), vehicle: saline with Tween-80.
Setting [10] is: dose: 6.25 mg/kg/injection, schedule: Q01DX009 (ip), vehicle: saline with Tween-80.
Where [11] appears, read: dose: 12.5 mg/kg/injection, schedule: Q01DX009 (ip), vehicle: saline with Tween-80.
Setting [12] is: dose: 60.0 mg/kg/injection, schedule: Q01DX005 (ip), vehicle: saline with Tween-80.
The mark [13] stands for this setting: dose: 120.0 mg/kg/injection, schedule: Q01DX005 (ip), vehicle: saline with Tween-80.
Setting [14] is: dose: 50.0 mg/kg/injection, schedule: Q01DX009 (ip), vehicle: Klucel (hydroxypropylcellulose) (HPC).
The mark [15] stands for this setting: dose: 100.0 mg/kg/injection, schedule: Q01DX009 (ip), vehicle: Klucel (hydroxypropylcellulose) (HPC).
[16] abbreviates: dose: 5.0 mg/kg/injection, schedule: Q01DX009 (ip), vehicle: saline with Tween-80.
The mark [17] stands for this setting: dose: 10.0 mg/kg/injection, schedule: Q01DX009 (ip), vehicle: saline with Tween-80.

Data on 21 compounds can be found in PubChem BioAssay AID330 (DTP/NCI, 2004).

Several values for one entry are separate records, joined by “and”; a condition that tells them apart may be missing. Equal values may be shown once. Inconclusive results and toxic doses are left out. Numbered stars: 1 amine (or outer) side, 2 acyl side, 3 side chain; on linkers, the order of the positions; unused ones are H or OH. Bridge positions count the residues as written; N and C are the ends. Square brackets hold non-standard residues; d marks the D form. Peptide text beside a SMILES is read from it. I, II: the chains in the order shown. Actinocin(9to1) = Cc1c2oc3c(C)ccc(C(=O)[*:1])c3nc-2c(C(=O)[*:2])c(N)c1=O; NMeV = CN[CH](C(=O)O)C(C)C; Pip = O=C(O)[CH]1CCCCN1; Sar = CNCC(=O)O

For the compound `CN1C(N)=NC(c2ccccc2)=CC1(C)c1ccccc1` (centres undefined), the T/C reads like this: under setting [1], 101 % of control; under setting [2], 99 % of control; under setting [3], 108 % of control.
As to `CSc1nnc2nc3c4ccccc4c4ccccc4c3nn12`, the T/C (dose: 50.0 mg/kg/injection, schedule: Q04DX002 (ip), vehicle: suspension in saline) is 100 % of control; the T/C (dose: 100.0 mg/kg/injection, schedule: Q04DX002 (ip), vehicle: suspension in saline) was 100 % of control; the T/C (dose: 200.0 mg/kg/injection, schedule: Q04DX002 (ip), vehicle: suspension in saline) is 98 % of control.
On to `CN(C)CCCOc1ccccc1NC1=C(Cl)C(=O)C(Nc2ccccc2OCCCN(C)C)=C(Cl)C1=O`, for which the T/C is, setting by setting: under setting [1], 108 % of control; under setting [2], 99 % of control; under setting [3], 97 % of control.
Turning to `O=C(NC(Cc1ccsc1)C(=O)O)c1ccccc1` (centres undefined), the T/C by setting is: (dose: 25.0 mg/kg/injection, schedule: Q01DX009 (ip), vehicle: other) 102 % of control; (dose: 50.0 mg/kg/injection, schedule: Q01DX009 (ip), vehicle: other) 104 % of control; (dose: 100.0 mg/kg/injection, schedule: Q01DX009 (ip), vehicle: other) 98 % of control.
Consider `Cc1ccc2nc3cc(N)ccc3c(-c3ccc(N)cc3)c2c1`, for which the T/C under setting [4] was 97 % of control, the T/C under setting [5] is 102 % of control and the T/C under setting [6] was 97 % of control.
On to `CCCCOC(=O)C(CC)c1ccccc1` (centres undefined), for which the T/C reads like this: under setting [7], 114 % of control; under setting [8], 114 % of control; under setting [9], 112 % of control.
Consider `Cc1c2oc3c(C)ccc(C(=O)NC4C(=O)NC(C(C)C)C(=O)N5CCCCC5C(=O)N(C)CC(=O)N(C)C(C(C)C)C(=O)OC4C)c3nc-2c(C(=O)NC2C(=O)NC(C(C)C)C(=O)N3CCCCC3C(=O)N(C)CC(=O)N(C)C(C(C)C)C(=O)OC2C)c(N)c1=O` (centres undefined) (I: TV[Pip][Sar][NMeV] / II: TV[Pip][Sar][NMeV]; ester I:1-I:C, II:1-II:C; linker I:N-II:N via Actinocin(9to1); configuration not given here), for which the T/C (dose: 0.39 mg/kg/injection, schedule: Q01DX009 (ip), vehicle: saline with Tween-80) is 110 % of control; the T/C (dose: 0.78 mg/kg/injection, schedule: Q01DX009 (ip), vehicle: saline with Tween-80) was 119 % of control; the T/C (dose: 1.56 mg/kg/injection, schedule: Q01DX009 (ip), vehicle: saline with Tween-80) was 180 % of control; the T/C (dose: 3.12 mg/kg/injection, schedule: Q01DX009 (ip), vehicle: saline with Tween-80) is 190 % of control; the T/C under setting [10] is 165 % of control and 209 % of control; the T/C under setting [11] is 195 % of control.
As for `CCOC(=O)c1c(Cl)c(CC)c(N=[N+]=[N-])n2c1nc1ccccc12`, the T/C under setting [12] was 101 % of control and the T/C under setting [13] was 101 % of control.
With `C=CCn1c(=O)c2[nH]c(Cl)nc2n(CC=C)c1=O`, the T/C (dose: 25.0 mg/kg/injection, schedule: Q01DX009 (ip), vehicle: Klucel (hydroxypropylcellulose) (HPC)) is 105 % of control; the T/C under setting [14] is 100 % of control; the T/C under setting [15] is 108 % of control.
As for `CCC(=O)OCc1c(-c2ccccc2)nc2sccn12`, the T/C (dose: 200.0 mg/kg/injection, schedule: Q01DX001 (ip), vehicle: Klucel (hydroxypropylcellulose) (HPC)) is 103 % of control.
On to `COc1ccccc1NC(=O)N(CCCl)N=O`, for which the T/C was 154 % of control (dose: 3.0 mg/kg/injection, schedule: Q04DX003 (ip), vehicle: saline with Tween-80); 168 % of control (dose: 6.0 mg/kg/injection, schedule: Q04DX003 (ip), vehicle: saline with Tween-80); 163 % of control under setting [10]; 168 % of control (dose: 6.25 mg/kg/injection, schedule: Q04DX003 (ip), vehicle: saline with Tween-80); 200 % of control under setting [11]; 190 % of control (dose: 12.5 mg/kg/injection, schedule: Q04DX003 (ip), vehicle: saline with Tween-80). Moreover, the T/C was 152 % of control (dose: 16.5 mg/kg/injection, schedule: Q04DX003 (ip), vehicle: saline with Tween-80); 95 % of control (dose: 25.0 mg/kg/injection, schedule: Q01DX009 (ip), vehicle: saline with Tween-80); 272 % of control (dose: 25.0 mg/kg/injection, schedule: Q04DX003 (ip), vehicle: saline with Tween-80); 123 % of control (dose: 37.5 mg/kg/injection, schedule: Q04DX003 (ip), vehicle: saline with Tween-80).
Turning to `CN(C)c1ccc2c(SCC(=O)Nc3ccc(NS(C)(=O)=O)cc3)c3ccc(N(C)C)cc3nc2c1`, the T/C is 115 % of control under setting [4], 117 % of control under setting [5] and 114 % of control under setting [6].
`CCCCCCCCCCCC(=O)Nc1ncc([N+](=O)[O-])s1`: the T/C was 101 % of control under setting [14]; 102 % of control under setting [15]; 106 % of control (dose: 200.0 mg/kg/injection, schedule: Q01DX009 (ip), vehicle: Klucel (hydroxypropylcellulose) (HPC)).
With `CC1=CC(=O)C(O)=C/C1=C\C=C\c1ccccc1`, the T/C by setting is: (dose: 2.5 mg/kg/injection, schedule: Q01DX009 (ip), vehicle: saline with Tween-80) 110 % of control; under setting [16], 104 % of control; under setting [17], 103 % of control.
For `COc1c(O)c(O)c2c(c1O)C(=O)c1cc(C)cc(O)c1C2=O`, the T/C under setting [16] is 99 % of control; the T/C under setting [17] was 103 % of control; the T/C (dose: 20.0 mg/kg/injection, schedule: Q01DX009 (ip), vehicle: saline with Tween-80) was 105 % of control.
On to `O=C(O)CCCCCCCCCCC1C=CCC1` (centres undefined), for which the T/C reads like this: (dose: 100.0 mg/kg/injection, schedule: Q04DX003 (ip), vehicle: saline) 93 % of control; (dose: 200.0 mg/kg/injection, schedule: Q04DX003 (ip), vehicle: saline) 93 % of control; (dose: 400.0 mg/kg/injection, schedule: Q04DX003 (ip), vehicle: saline) 93 % of control.
As for `O=C(O)c1ccccc1C(=O)n1cnc2ccccc21`, the T/C reads like this: (dose: 50.0 mg/kg/injection, schedule: Q01DX009 (ip), vehicle: saline with Tween-80) 87 % of control; (dose: 100.0 mg/kg/injection, schedule: Q01DX009 (ip), vehicle: saline with Tween-80) 94 % of control; (dose: 200.0 mg/kg/injection, schedule: Q01DX009 (ip), vehicle: saline with Tween-80) 90 % of control.
For the compound `c1csc(-c2cc(-c3cc(-c4cccs4)[nH]n3)n[nH]2)c1`, the T/C by setting is: (dose: 60.0 mg/kg/injection, schedule: Q01DX005 (ip), vehicle: Klucel (hydroxypropylcellulose) (HPC)) 102 % of control; (dose: 120.0 mg/kg/injection, schedule: Q01DX005 (ip), vehicle: Klucel (hydroxypropylcellulose) (HPC)) 96 % of control; (dose: 240.0 mg/kg/injection, schedule: Q01DX005 (ip), vehicle: Klucel (hydroxypropylcellulose) (HPC)) 90 % of control.
For the compound `S=P12OCCC(CO1)O2` (centres undefined), the T/C runs as follows: (dose: 100.0 mg/kg/injection, schedule: Q04DX003 (ip), vehicle: Klucel (hydroxypropylcellulose) (HPC)) 100 % of control; (dose: 200.0 mg/kg/injection, schedule: Q04DX003 (ip), vehicle: Klucel (hydroxypropylcellulose) (HPC)) 97 % of control; (dose: 400.0 mg/kg/injection, schedule: Q04DX003 (ip), vehicle: Klucel (hydroxypropylcellulose) (HPC)) 97 % of control.
Turning to `CC(CC(=O)c1cccc([N+](=O)[O-])c1)=NCC(C)N=C(C)CC(=O)c1cccc([N+](=O)[O-])c1` (centres undefined), the T/C was 98 % of control under setting [7], 101 % of control under setting [8] and 106 % of control under setting [9].
As for `COC(=O)c1nc2nnc(NC(=O)Nc3ccc(Cl)cc3)n2c(-c2ccccc2)c1C`, the T/C under setting [12] is 96 % of control and the T/C under setting [13] was 95 % of control.
